Test results published in publication PMC6429459, “The HslV Protease from Leishmania major and Its Activation by C-terminal HslU Peptides” (International Journal of Molecular Sciences, 2019).
* marks the point of attachment. AMC = Cc1cc(=O)oc2cc(N*)ccc12; Cbz = O=C(OCc1ccccc1)*

Key:
LmHslV = test: Degradation of fluorogenic substrates by LmC12-U2-activated LmHslV; type: biochemical, Leishmania major; conditions: LmHslV 75.2 nM, 37 °C, substrate 100 μM, activating peptide LmC12-U2 500 μM; Figure 2; in words
Protocol: Activity assay: The peptidase activity of recombinant LmHslV was assessed by measuring the fluorescence of AMC released after hydrolysis of the fluorogenic substrates Z-GGL-AMC or JMV4482 (Z-EVNL-AMC), 100 µM. LmHslV activation was obtained by addition of activating peptides (see type and concentration in the figure legends). Activity buffer: 25 mM Tris-HCl pH 8.0, 1 mM DTT, 0.5 mM EDTA and 5 mM MgCl2. Most of the experiments were performed in a final volume of 50 µL in black 96-well microplates (Fisher Scientific, Illkirch, France. Fluorescence was measured using a spectrofluorimeter (BIO-TEK Instrument, Inc., Winooski, VT, USA): filters 360/340 for excitation and 460/440 for emission.
Figure 2 Degradation of different fluorogenic substrates by LmHslV. LmHslV (75.2 nM) was incubated at 37 °C with different fluorogenic substrates (100 μM) in the presence of the activating peptide LmC12-U2 (500 μM). The fluorescence of the free AMC group, proportional to the activity of the sample, was measured at 2 min. intervals. With each substrate, no activity was measured in the absence of activating peptide: for the sake of clarity, only the negative control values obtained with the substrate ZGGL-AMC are shown.

[1] = biological target: HslV from E. coli (EcHslV) (Escherichia coli, UniProt P0A7B8); conditions: compared with Z-GGL-AMC; in words
From the text: A further improvement to our assays was the development of a novel fluorogenic peptide substrate, which was more convenient to use than Z-GGL-AMC. Indeed, although the substrate Z-GGL-AMC mostly used in the literature for the studies of HslV has proven useful, its use is limited by its poor solubility in aqueous solutions [6, 36]. In view of finding alternative substrates for LmHslV, we tested a variety of possible fluorogenic substrates (commercial or home-made) including Suc-LLVY-AMC, a classical substrate used for the eukaryotic proteasome, in the presence of the reference activator peptide LmC12-U2.

[2] = Solubility in aqueous assay solutions (observation); conditions: aqueous assay conditions, peptide concentrations in the millimolar range; in words

HslV from E. coli (EcHslV), sequence (P0A7B8 2-176): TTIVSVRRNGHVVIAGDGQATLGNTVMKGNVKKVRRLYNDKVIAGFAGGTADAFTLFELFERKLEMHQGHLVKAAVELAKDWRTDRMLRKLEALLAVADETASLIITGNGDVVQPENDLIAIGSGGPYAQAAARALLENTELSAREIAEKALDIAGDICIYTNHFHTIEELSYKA

## Cbz-EVNL-{AMC} (SMILES Cc1cc(=O)oc2cc(NC(=O)[C@H](CC(C)C)NC(=O)[C@H](CC(N)=O)NC(=O)[C@@H](NC(=O)[C@H](CCC(=O)O)NC(=O)OCc3ccccc3)C(C)C)ccc12) [Z-EVNL-AMC]
LmHslV
  Degradation of fluorogenic substrate by activated LmHslV: more efficiently degraded by LmHslV than Z-GGL-AMC and Suc-LLVY-AMC
[1]
  Degradation of fluorogenic substrate by EcHslV: more efficiently degraded by HslV from E. coli (EcHslV) than Z-GGL-AMC

## H-VNLAKYLL-OH [Compound 3]
[2]
  Solubility of activating peptide: not soluble enough for reliable results
